Target: human Nav1.8 (Homo sapiens (Human), UniProt Q9Y5Y9)
Assay: E-VIPR optical membrane potential assay with electrical stimulation
Assay type: cell-based
Conditions: HEK cells expressing human Nav1.8
Description: Assays for Detecting and Measuring NaV Inhibition Properties of Compounds E-VIPR Optical Membrane Potential Assay Method with Electrical Stimulation
Sodium channels are voltage-dependent proteins that can be activated by inducing membrane voltage changes by applying electric fields. The electrical stimulation instrument and methods of use are described in Ion Channel Assay Methods PCT/US01/21652, herein incorporated by reference and are referred to as E-VIPR. The instrument comprises a microtiter plate handler, an optical system for exciting the coumarin dye while simultaneously recording the coumarin and oxonol emissions, a waveform generator, a current- or voltage-controlled amplifier, and a device for inserting electrodes in well. Under integrated computer control, this instrument passes user-programmed electrical stimulus protocols to cells within the wells of the microtiter plate.
24 hours before the assay on E-VIPR, HEK cells expressing human Nav1.8 were seeded in 384-well poly-lysine coated plates at 15,000-20,000 cells per well. HEK cells were grown in media (exact composition is specific to each cell type and NaV subtype) supplemented with 10% FBS (Fetal Bovine Serum, qualified; GibcoBRL #16140-071) and 1% Pen-Strep (Penicillin-Streptomycin; GibcoBRL #15140-122). Cells were grown in vented cap flasks, in 90% humidity and 5% CO2.
1) Pre-spotted compounds (in neat DMSO) into compound plates. Vehicle control (neat DMSO), the positive control (20 mM DMSO stock tetracaine, 125 μM final in assay) and test compounds were added to each well at 160× desired final concentration in neat DMSO. Final compound plate volume was 80 μL (80-fold intermediate dilution from 1 μL DMSO spot; 160-fold final dilution after transfer to cell plate). Final DMSO concentration for all wells in assay was 0.625%.
2) Prepared Hexyl Dye Solution.
3) Prepared cell plates. On the day of the assay, medium was aspirated and cells were washed three times with 100 μL of Bath1 Solution, maintaining 25 μL residual volume in each well.
4) Dispensed 25 μL per well of Hexyl Dye Solution into cell plates. Incubated for 20-35 minutes at room temp or ambient conditions.
5) Dispensed 80 μL per well of Bath1 into compound plates. Acid Yellow-17 (1 mM) was added and Potassium Chloride was altered from 4.5 to 20 mM depending on the NaV subtype and assay sensitivity.
6) Washed cell plates three times with 100 μL per well of Bath1, leaving 25 μL of residual volume. Then transferred 25 uL per well from Compound Plates to Cell Plates. Incubated for 20-35 minutes at room temp/ambient condition.
7) Read Plate on E-VIPR. Used the current-controlled amplifier to deliver stimulation wave pulses for 10 seconds and a scan rate of 200 Hz. A pre-stimulus recording was performed for 0.5 seconds to obtain the un-stimulated intensities baseline. The stimulatory waveform was followed by 0.5 seconds of post-stimulation recording to examine the relaxation to the resting state.
Data was analyzed and reported as normalized ratios of emission intensities measured in the 460 nm and 580 nm channels. The response as a function of time was reported as the ratios obtained using the following formula: […]
The data was further reduced by calculating the initial (Ri) and final (Rf) ratios. These were the average ratio values during part or all of the pre-stimulation period, and during sample points during the stimulation period. The response to the stimulus R=Rf/Ri was then calculated and reported as a function of time.
Control responses were obtained by performing assays in the presence of a compound with the desired properties (positive control), such as tetracaine, and in the absence of pharmacological agents (negative control). Responses to the negative (N) and positive (P) controls were calculated as above. The compound antagonist activity A is defined as:
[formula] where R is the ratio response of the test compound

human Nav1.8, sequence (Q9Y5Y9 whole entry): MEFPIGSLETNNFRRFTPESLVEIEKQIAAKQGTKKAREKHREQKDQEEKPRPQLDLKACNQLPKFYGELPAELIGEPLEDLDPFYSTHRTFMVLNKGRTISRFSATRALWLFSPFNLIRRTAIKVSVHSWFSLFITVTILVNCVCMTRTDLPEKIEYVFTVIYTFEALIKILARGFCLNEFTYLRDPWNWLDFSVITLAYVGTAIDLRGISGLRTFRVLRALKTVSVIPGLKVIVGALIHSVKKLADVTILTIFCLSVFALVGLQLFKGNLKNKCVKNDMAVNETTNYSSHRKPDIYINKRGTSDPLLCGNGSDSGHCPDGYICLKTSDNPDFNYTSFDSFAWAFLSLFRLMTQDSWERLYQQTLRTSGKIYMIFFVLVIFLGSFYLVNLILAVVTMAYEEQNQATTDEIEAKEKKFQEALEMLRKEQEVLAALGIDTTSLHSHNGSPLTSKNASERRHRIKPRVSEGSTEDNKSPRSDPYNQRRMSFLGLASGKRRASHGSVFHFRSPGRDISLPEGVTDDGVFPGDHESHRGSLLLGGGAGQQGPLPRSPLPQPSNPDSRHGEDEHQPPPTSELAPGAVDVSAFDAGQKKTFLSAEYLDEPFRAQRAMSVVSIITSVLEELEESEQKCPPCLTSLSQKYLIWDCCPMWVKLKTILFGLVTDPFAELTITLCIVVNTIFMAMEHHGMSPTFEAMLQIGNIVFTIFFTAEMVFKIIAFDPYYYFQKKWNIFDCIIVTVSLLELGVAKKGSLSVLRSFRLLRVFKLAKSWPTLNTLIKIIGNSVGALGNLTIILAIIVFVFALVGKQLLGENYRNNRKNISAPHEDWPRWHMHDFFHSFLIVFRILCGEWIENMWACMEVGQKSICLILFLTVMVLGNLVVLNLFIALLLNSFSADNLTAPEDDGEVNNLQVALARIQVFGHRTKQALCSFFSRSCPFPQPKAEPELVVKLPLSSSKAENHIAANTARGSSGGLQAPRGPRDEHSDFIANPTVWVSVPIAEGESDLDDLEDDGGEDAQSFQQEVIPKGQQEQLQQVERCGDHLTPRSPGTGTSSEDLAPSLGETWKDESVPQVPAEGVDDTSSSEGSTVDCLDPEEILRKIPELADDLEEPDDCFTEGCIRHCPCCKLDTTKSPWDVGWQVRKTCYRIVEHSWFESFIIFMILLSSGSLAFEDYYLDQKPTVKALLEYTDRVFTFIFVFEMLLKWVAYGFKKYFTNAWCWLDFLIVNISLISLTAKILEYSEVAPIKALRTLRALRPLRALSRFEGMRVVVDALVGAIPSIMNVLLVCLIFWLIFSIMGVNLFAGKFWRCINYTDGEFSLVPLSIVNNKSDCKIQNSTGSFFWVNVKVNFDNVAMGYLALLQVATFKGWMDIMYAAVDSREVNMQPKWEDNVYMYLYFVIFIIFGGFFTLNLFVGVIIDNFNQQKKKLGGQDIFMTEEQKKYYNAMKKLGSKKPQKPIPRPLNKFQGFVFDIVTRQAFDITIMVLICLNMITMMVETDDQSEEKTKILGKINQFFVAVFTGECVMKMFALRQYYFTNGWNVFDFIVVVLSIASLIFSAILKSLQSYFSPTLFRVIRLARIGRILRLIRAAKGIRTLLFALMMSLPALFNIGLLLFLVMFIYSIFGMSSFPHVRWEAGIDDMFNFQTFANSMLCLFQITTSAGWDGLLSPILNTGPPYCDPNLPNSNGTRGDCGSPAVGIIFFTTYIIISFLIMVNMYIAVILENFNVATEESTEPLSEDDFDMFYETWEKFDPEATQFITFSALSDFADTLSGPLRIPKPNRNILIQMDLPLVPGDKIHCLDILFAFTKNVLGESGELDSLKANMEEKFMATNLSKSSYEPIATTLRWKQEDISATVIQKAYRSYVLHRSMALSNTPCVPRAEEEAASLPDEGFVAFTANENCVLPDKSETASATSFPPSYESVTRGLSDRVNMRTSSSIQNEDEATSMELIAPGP

IC50 [nM] | SMILES
3 | NS(=O)(=O)c1cccc(NC(=O)c2nc3ccccc3nc2Oc2ccc(F)cc2Cl)c1 [Compound 6, 3-(2-chloro-4-fluorophenoxy)-N-(3-sulfamoylphenyl)quinoxaline-2-carboxamide]
340 | O=C(O)c1ccc(NC(=O)c2nc3ccccc3nc2Oc2ccccc2OC(F)F)cn1 [Compound 24, 5-(3-(2-(difluoromethoxy)phenoxy)quinoxaline-2-carboxamido)picolinic acid]
7 | O=C(O)c1cc(NC(=O)c2nc3ccccc3nc2Oc2ccc(OC(F)(F)F)cc2)ccn1 [Compound 33, 4-(3-(4-(trifluoromethoxy)phenoxy)quinoxaline-2-carboxamido)picolinic acid]
1250 | COc1cc(F)ccc1Oc1nc2ccccc2nc1C(=O)Nc1cc(C#N)ccn1 [Compound 50, N-(4-cyanopyridin-2-yl)-3-(4-fluoro-2-methoxyphenoxy)quinoxaline-2-carboxamide]
6 | COc1ccc(Oc2nc3ccccc3nc2C(=O)Nc2cccc(S(N)(=O)=O)c2)c(OC)c1 [Compound 8, 3-(2,4-dimethoxyphenoxy)-N-(3-sulfamoylphenyl)quinoxaline-2-carboxamide]
44 | O=C(O)c1ccc(NC(=O)c2nc3ccccc3nc2Oc2ccc(OC(F)(F)F)cc2)cc1 [Compound 17, 4-(3-(4-(trifluoromethoxy)phenoxy)quinoxaline-2-carboxamido)benzoic acid]
220 | COc1cc(F)ccc1Oc1nc2ccccc2nc1C(=O)Nc1cn[nH]c1 [Compound 43, 3-(4-fluoro-2-methoxyphenoxy)-N-(1H-pyrazol-4-yl)quinoxaline-2-carboxamide]
19 | COc1cc(Cl)ccc1Oc1nc2ccccc2nc1C(=O)Nc1ccc(C(=O)O)nc1 [Compound 23, 5-(3-(4-chloro-2-methoxyphenoxy)quinoxaline-2-carboxamido)picolinic acid]
22 | COc1cc(F)ccc1Oc1nc2ccccc2nc1C(=O)Nc1ccncc1 [Compound 53, 3-(4-fluoro-2-methoxyphenoxy)-N-(pyridin-4-yl)quinoxaline-2-carboxamide]
